Test results published in US9199947B2, “Biaryl-propionic acid derivatives and their use as pharmaceuticals” (SANOFI, priority 2013, dated 2015).
Where two headings read alike, the source gives them in different places.

Target: Recombinant human cathepsin A (Homo sapiens (Human), UniProt P10619)
Experiment: Cathepsin A inhibitory activity (Bodipy FL-labeled bradykinin substrate, microfluidic capillary electrophoresis)
Type: biochemical
Conditions: read-out: CATHA IC50
Method: Pharmacological Tests a) Cathepsin a Inhibitory Activity
Recombinant human cathepsin A (residues 29-480, with a C-terminal 10-His tag; R&D Systems, #1049-SE) was proteolytically activated with recombinant human cathepsin L (R&D Systems, #952-CY). Briefly, cathepsin A was incubated at 10 μg/ml with cathepsin L at 1 μg/ml in activation buffer (25 mM 2-(morpholin-4-yl)-ethanesulfonic acid (MES), pH 6.0, containing 5 mM dithiothreitol (DTT)) for 15 min at 37° C.
The activated cathepsin A was diluted in assay buffer (25 mM MES, pH 5.5, containing 5 mM DTT) and mixed with the test compound (dissolved in assay buffer containing (v/v) 3% DMSO) or, in the control experiments, with the vehicle in a multiple assay plate. After incubation for 15 min at room temperature, as substrate then bradykinin carrying an N-terminal® Bodipy FL (4,4-difluoro-5,7-dimethyl-4-bora-3a,4a-diaza-s-indacene-3-propionyl) label (JPT Peptide Technologies GmbH; dissolved in assay buffer) was added to the mixture. The final concentration of cathepsin A was 833 ng/ml and the final concentration of labeled bradykinin 2 μM. After incubation for 15 min at room temperature the reaction was stopped by the addition of stop buffer (130 mM 2-(4-(2-hydroxy-ethyl)-piperazin-1-yl)-ethanesulfonic acid, pH 7.4, containing (v/v) 0.013%° Triton X-100, 0.13% Coating Reagent 3 (Caliper Life Sciences), 6.5% DMSO and 20 μM ebelactone B (Sigma, #E0886)).
Uncleaved substrate and product were then separated by a microfluidic capillary electrophoresis on a LabChip® 3000 Drug Discovery System (12-Sipper-Chip; Caliper Life Sciences) and quantified by determination of the respective peak areas. Substrate turnover was calculated by dividing product peak area by the sum of substrate and product peak areas, and the enzyme activity and the inhibitory effect of the test compound thus quantified.

[1] = Cathepsin A inhibitory activity

Recombinant human cathepsin A, sequence (P10619 29-326): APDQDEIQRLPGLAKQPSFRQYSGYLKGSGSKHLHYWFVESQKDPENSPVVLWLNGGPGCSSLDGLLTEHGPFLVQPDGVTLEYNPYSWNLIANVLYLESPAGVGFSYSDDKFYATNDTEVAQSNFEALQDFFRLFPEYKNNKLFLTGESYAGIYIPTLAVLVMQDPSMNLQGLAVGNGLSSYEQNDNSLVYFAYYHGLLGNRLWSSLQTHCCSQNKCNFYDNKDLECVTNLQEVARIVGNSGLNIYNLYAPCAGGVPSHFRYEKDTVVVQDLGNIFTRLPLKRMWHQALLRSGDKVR
Recombinant human cathepsin A, sequence (P10619 327-480): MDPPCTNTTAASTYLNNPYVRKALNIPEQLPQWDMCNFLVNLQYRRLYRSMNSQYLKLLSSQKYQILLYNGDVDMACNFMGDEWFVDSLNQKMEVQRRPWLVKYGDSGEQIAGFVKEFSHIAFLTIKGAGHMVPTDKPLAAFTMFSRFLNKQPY

COc1ccc(-c2ccc(F)cc2)cc1C(CC(=O)O)c1ncc(C)s1 (stereo not drawn) [compound 84] was tested, and the IC50 was 4390 nM.
COc1cccc(-c2ccc(OC)c(C(CC(=O)O)c3ncc(C)s3)c2)c1 (stereo not drawn) [compound 85] gave an IC50 of 5560 nM.
In the case of COc1ccc(-c2cc(C)ccc2F)cc1C(CC(=O)O)c1ncc(C)s1 (stereo not drawn) [compound 86], the IC50 is reported as 5680 nM.
Molecule COc1ccc(-c2ccc(F)cc2Cl)cc1C(CC(=O)O)c1ncc(C)s1 (stereo not drawn) [compound 87] has an IC50 of 6360 nM.
Work on COc1ccc(-c2ccccc2Cl)cc1C(CC(=O)O)c1ncc(C)s1 (stereo not drawn) [compound 88] yielded an IC50 of 6690 nM.
With COc1ccc(-c2ccc(OC(F)(F)F)cc2)cc1C(CC(=O)O)c1ncc(C)s1 (stereo not drawn) [compound 89] the IC50 was 6730 nM.
COc1ccc(-c2cccc(C)c2)cc1C(CC(=O)O)c1ncc(C)s1 (stereo not drawn) [compound 90] showed an IC50 of 7120 nM.
COc1ccc(-c2cccc(C(F)(F)F)c2)cc1C(CC(=O)O)c1ncc(C)s1 (stereo not drawn) [compound 91] showed an IC50 of 7770 nM.
In the case of COc1ccc(-c2ccc(OC)c(C(CC(=O)O)c3ncc(C)s3)c2)cc1 (stereo not drawn) [compound 92], the IC50 is reported as 7810 nM.
In the case of COc1ccc(-c2ccc(C#N)cc2)cc1C(CC(=O)O)c1ncc(C)s1 (stereo not drawn) [compound 93], the IC50 is reported as 8800 nM.
COc1ccc(-c2cccc(C#N)c2)cc1C(CC(=O)O)c1ncc(C)s1 (stereo not drawn) [compound 94] gave an IC50 of 9260 nM.
In the case of COc1ccc(-c2ccccc2C(F)(F)F)cc1C(CC(=O)O)c1ncc(C)s1 (stereo not drawn) [compound 95], the IC50 is reported as 10200 nM.
COc1ccc(-c2cccc(OC(F)(F)F)c2)cc1C(CC(=O)O)c1ncc(C)s1 (stereo not drawn) [compound 96] showed an IC50 of 18100 nM.
COc1ccc(-c2ccccc2C(N)=O)cc1C(CC(=O)O)c1ncc(C)s1 (stereo not drawn) [compound 97] showed an IC50 of 19300 nM.
With Cc1cnc(C(CC(=O)O)c2cc(Cl)cc(-c3cc(F)ccc3F)c2)s1 (stereo not drawn) [compound 101] the IC50 was 136 nM.
Cc1cnc(C(CC(=O)O)c2cc(Cl)cc(-c3cccc(C)c3F)c2)s1 (stereo not drawn) [compound 102] was tested, and the IC50 was 184 nM.
For Cc1cnc(C(CC(=O)O)c2cc(Cl)cc(-c3cccc(Cl)c3F)c2)s1 (stereo not drawn) [compound 103], the IC50 was 197 nM.
For Cc1cnc(C(CC(=O)O)c2cc(Cl)cc(-c3ccccc3OC(F)(F)F)c2)s1 (stereo not drawn) [compound 104], the IC50 was 221 nM.
Cc1ccc(F)c(-c2cc(Cl)cc(C(CC(=O)O)c3ncc(C)s3)c2)c1 (stereo not drawn) [compound 105] showed an IC50 of 232 nM.
In the case of CC(=O)c1ccccc1-c1cc(Cl)cc(C(CC(=O)O)c2ncc(C)s2)c1 (stereo not drawn) [compound 106], the IC50 is reported as 250 nM.
Cc1cnc(C(CC(=O)O)c2cc(Cl)cc(-c3ccccc3F)c2)s1 (stereo not drawn) [compound 107] gave an IC50 of 328 nM.
With COc1cc(F)c(-c2cc(Cl)cc(C(CC(=O)O)c3ncc(C)s3)c2)c(F)c1 (stereo not drawn) [compound 108] the IC50 was 335 nM.
For Cc1cnc(C(CC(=O)O)c2cc(Cl)cc(-c3cccc(F)c3F)c2)s1 (stereo not drawn) [compound 109], the IC50 was 354 nM.
With Cc1cnc(C(CC(=O)O)c2cc(Cl)cc(-c3ccccc3C(N)=O)c2)s1 (stereo not drawn) [compound 110] the IC50 was 404 nM.
Cc1cnc(C(CC(=O)O)c2cc(Cl)cc(-c3cccc(OC(F)(F)F)c3)c2)s1 (stereo not drawn) [compound 111] gave an IC50 of 406 nM.
Cc1cnc(C(CC(=O)O)c2cc(Cl)cc(-c3ccncc3)c2)s1 (stereo not drawn) [compound 112] was tested, and the IC50 was 459 nM.
Work on COc1ccc(-c2cc(Cl)cc(C(CC(=O)O)c3ncc(C)s3)c2)c(F)c1 (stereo not drawn) [compound 113] yielded an IC50 of 563 nM.
Molecule Cc1cnc(C(CC(=O)O)c2cc(Cl)cc(-c3ccccc3C#N)c2)s1 (stereo not drawn) [compound 114] has an IC50 of 567 nM.
Cc1cnc(C(CC(=O)O)c2cc(Cl)cc(-c3cccnc3)c2)s1 (stereo not drawn) [compound 115] gave an IC50 of 1060 nM.
Cc1cnc(C(CC(=O)O)c2cc(Cl)cc(-c3ccccc3C(=O)N(C)C)c2)s1 (stereo not drawn) [compound 116] was tested, and the IC50 [1] was 1440 nM.
Cc1cnc(C(CC(=O)O)c2cc(Cl)cc(-c3ccncc3F)c2)s1 (stereo not drawn) [compound 117] gave an IC50 [1] of 1560 nM.
Cc1ccc(F)c(-c2cc(F)cc(C(CC(=O)O)c3ncc(C)s3)c2)c1 (stereo not drawn) [compound 118] was tested, and the IC50 [1] was 437 nM.
In the case of Cc1cccc(-c2cc(F)cc(C(CC(=O)O)c3ncco3)c2)c1F (stereo not drawn) [compound 119], the IC50 [1] is reported as 488 nM.
In the case of Cc1cnc(C(CC(=O)O)c2cc(F)cc(-c3cc(F)ccc3F)c2)s1 (stereo not drawn) [compound 120], the IC50 [1] is reported as 649 nM.
CC(=O)c1ccccc1-c1cc(F)cc(C(CC(=O)O)c2ncc(C)s2)c1 (stereo not drawn) [compound 121] gave an IC50 [1] of 707 nM.
In the case of Cc1cnc(C(CC(=O)O)c2cc(F)cc(-c3ccccc3F)c2)s1 (stereo not drawn) [compound 122], the IC50 [1] is reported as 780 nM.
Cc1ccc(F)c(-c2cc(F)cc(C(CC(=O)O)c3ncco3)c2)c1 (stereo not drawn) [compound 123] was tested, and the IC50 [1] was 903 nM.
In the case of Cc1cnc(C(CC(=O)O)c2cc(F)cc(-c3cccc(OC(F)(F)F)c3)c2)s1 (stereo not drawn) [compound 124], the IC50 [1] is reported as 975 nM.
In the case of Cc1ccc(-c2cc(F)cc(C(CC(=O)O)c3ncco3)c2)c(F)c1 (stereo not drawn) [compound 125], the IC50 [1] is reported as 1160 nM.
Molecule Cc1cnc(C(CC(=O)O)c2cc(F)cc(-c3ccccc3C(N)=O)c2)s1 (stereo not drawn) [compound 127] has an IC50 [1] of 1230 nM.
Cc1cnc(C(CC(=O)O)c2cc(F)cc(-c3cccnc3)c2)s1 (stereo not drawn) [compound 128] showed an IC50 [1] of 1330 nM.
For O=C(O)CC(c1cc(F)cc(-c2cccc(F)c2F)c1)c1ncco1 (stereo not drawn) [compound 129], the IC50 [1] was 1450 nM.
For O=C(O)CC(c1cc(F)cc(-c2cc(F)ccc2F)c1)c1ncco1 (stereo not drawn) [compound 130], the IC50 [1] was 1490 nM.
In the case of Cc1cnc(C(CC(=O)O)c2cc(F)cc(-c3ccccc3C#N)c2)s1 (stereo not drawn) [compound 131], the IC50 [1] is reported as 1690 nM.
Cc1cnc(C(CC(=O)O)c2cc(F)cc(-c3ccccc3C(=O)N(C)C)c2)s1 (stereo not drawn) [compound 132] showed an IC50 [1] of 1700 nM.
For O=C(O)CC(c1cc(F)cc(-c2ccccc2F)c1)c1ncco1 (stereo not drawn) [compound 133], the IC50 [1] was 1720 nM.
NC(=O)c1ccccc1-c1cc(F)cc(C(CC(=O)O)c2ncco2)c1 (stereo not drawn) [compound 134] was tested, and the IC50 [1] was 1770 nM.
CC(=O)c1ccccc1-c1cc(F)cc(C(CC(=O)O)c2ncco2)c1 (stereo not drawn) [compound 136] gave an IC50 [1] of 2030 nM.
N#Cc1ccccc1-c1cc(F)cc(C(CC(=O)O)c2ncco2)c1 (stereo not drawn) [compound 137] showed an IC50 [1] of 2030 nM.
O=C(O)CC(c1cc(F)cc(-c2cccc(OC(F)(F)F)c2)c1)c1ncco1 (stereo not drawn) [compound 138] gave an IC50 [1] of 2280 nM.
Cc1cnc(C(CC(=O)O)c2cc(F)cc(-c3ccncc3)c2)s1 (stereo not drawn) [compound 139] was tested, and the IC50 [1] was 8650 nM.
CC(=O)c1ccccc1-c1cccc(C(CC(=O)O)c2nnc(C)o2)c1 (stereo not drawn) [compound 145] showed an IC50 [1] of 1720 nM.
Cc1nnc(C(CC(=O)O)c2cccc(-c3ccccc3C#N)c2)o1 (stereo not drawn) [compound 146] was tested, and the IC50 [1] was 4740 nM.
Cc1nnc(C(CC(=O)O)c2cccc(-c3cccnc3)c2)o1 (stereo not drawn) [compound 147] gave an IC50 [1] of 6710 nM.
With Cc1nnc(C(CC(=O)O)c2cccc(-c3ccncc3)c2)o1 (stereo not drawn) [compound 148] the IC50 [1] was 20600 nM.
Cc1nnc(C(CC(=O)O)c2cccc(-c3ccccc3)c2)o1 (stereo not drawn) [compound 167] showed an IC50 [1] of 935 nM.
Work on COc1ccc(-c2ccccc2)cc1C(CC(=O)O)c1nccs1 (stereo not drawn) [compound 168] yielded an IC50 [1] of 4940 nM.
